# From ChEMBL document CHEMBL3124780, “The synthesis of 4,7-disubstituted-2H-benzo[b][1,4]-oxazin-3(4H)-ones using Smiles rearrangement and their in vitro evaluation as platelet aggregation inhibitors” (Bioorg Med Chem Lett, 2014)
# Experiment: Antiplatelet activity in New Zealand rabbit platelet-rich plasma assessed as inhibition of ADP-induced aggregation treated for 5 mins prior to ADP-challenge measured after 1 to 6 mins by spectrophotometric analysis
# Type: functional, cell-free
# Settings: Oryctolagus cuniculus
row,IC50 [µM],Compound
1,13.3,CC(C)N1C(=O)COc2cc(CN3CCN(c4ccc(F)cc4)CC3)ccc21
2,19.4,O=C1COc2cc(CN3CCN(c4ccc(F)cc4)CC3)ccc2N1Cc1ccccc1
3,12.8,CCCN1C(=O)COc2cc(CN3CCN(c4ccccc4)CC3)ccc21
4,15.5,CCCCN1C(=O)COc2cc(CN3CCN(c4ccccc4)CC3)ccc21
5,13.8,CCCN1C(=O)COc2cc(CN3CCN(c4ccccc4F)CC3)ccc21
6,11.4,CCCN1C(=O)COc2cc(CN3CCN(c4ccc(F)cc4)CC3)ccc21
7,10.1,CCN1C(=O)COc2cc(CN3CCN(c4ccccc4)CC3)ccc21
8,15.2,CCCCN1C(=O)COc2cc(CN3CCN(c4ccc(F)cc4)CC3)ccc21
9,11.1,CCN1C(=O)COc2cc(CN3CCN(c4ccc(F)cc4)CC3)ccc21
10,17.1,CCCCN1C(=O)COc2cc(CN3CCN(c4ccccc4F)CC3)ccc21

# Continued, compound first:
row,Compound,IC50 [µM]
1,O=C1COc2cc(CN3CCOCC3)ccc2N1Cc1ccccc1,12.2
2,CCCN1C(=O)COc2cc(CN3CCN(Cc4ccccc4)CC3)ccc21,9.2
3,CCN1C(=O)COc2cc(CN3CCOCC3)ccc21,10.5
4,CCCCN1C(=O)COc2cc(CN3CCOCC3)ccc21,14.4
5,O=C1COc2cc(CN3CCN(c4ccccc4)CC3)ccc2N1Cc1ccccc1,13.9
6,CC(=O)Oc1ccccc1C(=O)O [ASPIRIN],7.07
7,CC(C)N1C(=O)COc2cc(CN3CCN(c4ccccc4F)CC3)ccc21,13.6
8,CCN1C(=O)COc2cc(CN3CCN(c4ccccc4F)CC3)ccc21,12.7
9,Clc1ccccc1CN1CCc2sccc2C1 [TICLOPIDINE],3.72
10,CC(C)N1C(=O)COc2cc(CN3CCN(c4ccccc4)CC3)ccc21,10.8
11,CC(C)N1C(=O)COc2cc(CN3CCOCC3)ccc21,11
12,CCCN1C(=O)COc2cc(CN3CCOCC3)ccc21,9.63
13,O=C1COc2cc(CN3CCN(c4ccccc4F)CC3)ccc2N1Cc1ccccc1,15.3
